Assay results taken from ChEMBL document CHEMBL1201862, “PubChem BioAssay data set” (2004).
Active and inactive are the calls of the source.

Columns and labels:
[1] = tested on: Candida albicans; test: fluconazole-resistant Candida strain growth inhibitors – CaCi-8 strain, dry powder, set 4, dose response (AID 488950); format: functional, organism-based
[2] = tested on: Candida albicans; test: C. albicans growth inhibition with fluconazole – CaCi-2 strain, Alamar Blue, dry powder, set 4, dose response (AID 488943); format: functional, organism-based
[3] = target: T1, Sentrin-specific protease 8 (Homo sapiens, UniProt Q96LD8); test: inhibition of human SENP8 cleavage activity – biochemical, luminescence, SAR follow-up (AID 504501); format: functional
T1 sequence (Q96LD8 whole entry): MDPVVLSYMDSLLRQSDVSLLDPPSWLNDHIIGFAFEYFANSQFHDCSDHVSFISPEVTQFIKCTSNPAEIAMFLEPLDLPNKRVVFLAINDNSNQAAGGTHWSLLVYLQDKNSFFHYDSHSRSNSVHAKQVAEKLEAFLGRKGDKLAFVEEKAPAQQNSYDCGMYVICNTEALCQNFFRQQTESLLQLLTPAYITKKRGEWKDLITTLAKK

[4] = target: T2, Caspase-3 (Homo sapiens, UniProt P42574); test: SAR Analysis of small molecule inhibitors of Sentrin-specific proteases (SENPs) using a Caspase-3 Selectivity assay. [Related pubchem assays (depositor defined):AID2540, AID2599, AID434973, AID489001]; format: functional
T2 sequence (P42574 whole entry): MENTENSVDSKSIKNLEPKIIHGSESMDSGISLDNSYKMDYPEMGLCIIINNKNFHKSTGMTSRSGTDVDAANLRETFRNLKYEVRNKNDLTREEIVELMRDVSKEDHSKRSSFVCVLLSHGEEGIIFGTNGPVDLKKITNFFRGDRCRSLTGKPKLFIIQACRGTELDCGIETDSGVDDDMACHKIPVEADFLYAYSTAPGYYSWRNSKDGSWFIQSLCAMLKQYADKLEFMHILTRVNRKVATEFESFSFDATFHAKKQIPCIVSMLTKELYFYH

[5] = target: T3, Sentrin-specific protease 6 (Homo sapiens, UniProt Q9GZR1); test: SAR Analysis of small molecule inhibitors of Sentrin-specific protease 6 (SENP6) using a Luminescent assay. [Related pubchem assays (depositor defined):AID2582, AID2599]; format: functional
T3 sequence (Q9GZR1 whole entry): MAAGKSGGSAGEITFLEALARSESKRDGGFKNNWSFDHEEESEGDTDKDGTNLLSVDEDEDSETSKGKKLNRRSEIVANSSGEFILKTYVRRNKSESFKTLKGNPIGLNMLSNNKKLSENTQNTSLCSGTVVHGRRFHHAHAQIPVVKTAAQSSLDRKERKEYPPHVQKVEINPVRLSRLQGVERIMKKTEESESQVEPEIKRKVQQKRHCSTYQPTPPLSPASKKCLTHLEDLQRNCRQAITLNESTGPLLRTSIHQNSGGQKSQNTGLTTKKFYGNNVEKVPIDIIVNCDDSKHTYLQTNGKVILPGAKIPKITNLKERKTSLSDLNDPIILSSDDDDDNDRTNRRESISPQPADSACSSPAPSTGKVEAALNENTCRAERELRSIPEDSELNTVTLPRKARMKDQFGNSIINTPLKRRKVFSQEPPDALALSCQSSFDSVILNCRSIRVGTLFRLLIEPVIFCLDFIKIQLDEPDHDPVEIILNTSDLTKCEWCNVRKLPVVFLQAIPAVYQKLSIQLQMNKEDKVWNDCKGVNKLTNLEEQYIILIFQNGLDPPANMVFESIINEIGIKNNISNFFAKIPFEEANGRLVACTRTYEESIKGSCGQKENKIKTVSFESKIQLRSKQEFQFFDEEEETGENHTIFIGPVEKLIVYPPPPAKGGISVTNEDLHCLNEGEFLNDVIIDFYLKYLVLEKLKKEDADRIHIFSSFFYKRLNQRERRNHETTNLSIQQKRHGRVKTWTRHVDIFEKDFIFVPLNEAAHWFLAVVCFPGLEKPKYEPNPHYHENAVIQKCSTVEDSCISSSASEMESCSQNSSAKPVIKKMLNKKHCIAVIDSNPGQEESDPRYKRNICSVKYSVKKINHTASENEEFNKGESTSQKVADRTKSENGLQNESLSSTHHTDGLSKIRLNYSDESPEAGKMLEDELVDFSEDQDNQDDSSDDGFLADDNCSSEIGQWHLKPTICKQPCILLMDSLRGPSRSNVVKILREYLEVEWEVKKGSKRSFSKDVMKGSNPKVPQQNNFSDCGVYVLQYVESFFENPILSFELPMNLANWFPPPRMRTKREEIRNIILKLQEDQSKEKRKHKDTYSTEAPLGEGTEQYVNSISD

[6] = target: T4, Sentrin-specific protease 7 (Homo sapiens, UniProt Q9BQF6); test: inhibition of human SENP7 cleavage activity – biochemical, luminescence, SAR follow-up (AID 504497); format: functional
T4 sequence (Q9BQF6 whole entry): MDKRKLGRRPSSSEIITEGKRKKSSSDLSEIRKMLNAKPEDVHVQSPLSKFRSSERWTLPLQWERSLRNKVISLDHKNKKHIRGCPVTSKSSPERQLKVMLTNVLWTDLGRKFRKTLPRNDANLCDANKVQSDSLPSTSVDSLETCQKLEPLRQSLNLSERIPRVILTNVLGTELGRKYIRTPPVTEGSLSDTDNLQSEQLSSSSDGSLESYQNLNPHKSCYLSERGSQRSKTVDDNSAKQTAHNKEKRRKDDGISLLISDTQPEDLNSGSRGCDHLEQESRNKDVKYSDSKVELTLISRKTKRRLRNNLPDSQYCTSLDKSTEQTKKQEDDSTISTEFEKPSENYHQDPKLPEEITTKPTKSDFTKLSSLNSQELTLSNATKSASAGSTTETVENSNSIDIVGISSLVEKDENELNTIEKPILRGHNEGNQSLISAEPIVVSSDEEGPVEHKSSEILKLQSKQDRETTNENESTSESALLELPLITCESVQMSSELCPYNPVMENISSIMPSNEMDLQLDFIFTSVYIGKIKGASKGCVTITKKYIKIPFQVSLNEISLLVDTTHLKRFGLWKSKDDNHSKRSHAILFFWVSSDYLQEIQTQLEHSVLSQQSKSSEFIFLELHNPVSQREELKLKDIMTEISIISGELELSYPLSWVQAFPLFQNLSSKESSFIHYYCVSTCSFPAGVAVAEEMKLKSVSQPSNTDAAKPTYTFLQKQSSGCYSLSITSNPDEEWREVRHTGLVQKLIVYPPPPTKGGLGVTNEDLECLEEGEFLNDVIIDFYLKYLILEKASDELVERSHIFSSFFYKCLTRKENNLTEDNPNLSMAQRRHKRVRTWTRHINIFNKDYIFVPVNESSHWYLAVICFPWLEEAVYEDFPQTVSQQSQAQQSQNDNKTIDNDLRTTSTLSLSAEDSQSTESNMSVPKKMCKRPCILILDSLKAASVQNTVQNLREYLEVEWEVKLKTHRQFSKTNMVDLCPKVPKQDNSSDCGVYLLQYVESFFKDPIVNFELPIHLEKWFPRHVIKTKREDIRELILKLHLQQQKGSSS

[7] = tested on: Streptococcus sp. 'group A'; test: Streptococcus pyogenes SK(-)GAS viability under kanamycin – luminescence, BacTiterGlo, confirmation, counter-screen for streptokinase expression inhibitor project, dose response (AID 1900); format: functional, organism-based
[8] = target: T5, Streptokinase A (Streptococcus pyogenes serotype M1, UniProt P10520); test: viability-normalized secreted streptokinase activity reduction – plasminogen activation absorbance, OD405, dose response (AID 1914); format: functional, Streptococcus pyogenes M1 GAS;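 also: secreted streptokinase activity via plasminogen activation per viability signal from cell pellet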
T5 sequence (P10520 whole entry): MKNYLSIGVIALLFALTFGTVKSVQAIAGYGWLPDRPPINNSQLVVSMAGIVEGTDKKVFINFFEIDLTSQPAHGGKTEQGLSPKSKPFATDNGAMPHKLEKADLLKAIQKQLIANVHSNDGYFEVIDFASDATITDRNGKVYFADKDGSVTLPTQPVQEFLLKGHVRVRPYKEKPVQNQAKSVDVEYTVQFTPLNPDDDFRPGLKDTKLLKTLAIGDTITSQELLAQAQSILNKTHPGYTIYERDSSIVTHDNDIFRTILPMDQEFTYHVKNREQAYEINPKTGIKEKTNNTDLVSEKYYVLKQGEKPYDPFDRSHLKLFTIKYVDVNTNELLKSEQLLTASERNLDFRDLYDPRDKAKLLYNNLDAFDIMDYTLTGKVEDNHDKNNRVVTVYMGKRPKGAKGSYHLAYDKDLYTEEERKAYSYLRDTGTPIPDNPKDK

[9] = tested on: Streptococcus; test: GAS UMAA2166 growth inhibition – luminescence, BacTiterGlo, counter-screen for streptokinase expression inhibitor project, dose response (AID 1915); format: functional, organism-based;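 also: potency for reduction of bacterial viability or growth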
[10] = target: T6, Cysteine protease ATG4B (Homo sapiens, UniProt Q9Y4P1); format: functional;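 also: Fluorescence-based dose-response confirmation assay measuring inhibition of ATG4B activity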
T6 sequence (Q9Y4P1 whole entry): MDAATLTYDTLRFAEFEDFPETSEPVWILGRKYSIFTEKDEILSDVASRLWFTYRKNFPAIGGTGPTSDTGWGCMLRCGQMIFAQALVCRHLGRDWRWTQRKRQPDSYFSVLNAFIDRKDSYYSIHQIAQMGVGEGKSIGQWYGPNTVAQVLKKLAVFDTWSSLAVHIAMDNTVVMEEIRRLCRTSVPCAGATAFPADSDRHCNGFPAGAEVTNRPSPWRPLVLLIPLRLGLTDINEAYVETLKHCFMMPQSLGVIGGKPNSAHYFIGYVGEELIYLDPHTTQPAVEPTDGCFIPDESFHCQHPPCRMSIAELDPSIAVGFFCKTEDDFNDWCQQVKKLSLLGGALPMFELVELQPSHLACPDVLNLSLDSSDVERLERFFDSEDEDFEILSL

[11] = target: Phospholipase A2 (Homo sapiens, UniProt P04054); format: functional;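 also: confirmatory dose-response counterscreen on phospholipase A2, testing hits that came from an ultra-high-throughput screen for ATG4B inhibitors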
Chain of Phospholipase A2 (P04054 whole entry): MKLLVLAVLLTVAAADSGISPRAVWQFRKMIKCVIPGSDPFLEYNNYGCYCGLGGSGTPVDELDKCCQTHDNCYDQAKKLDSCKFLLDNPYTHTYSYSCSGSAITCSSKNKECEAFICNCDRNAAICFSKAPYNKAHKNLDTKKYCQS

[12] = target: T7, Fatty acid synthase (Homo sapiens, UniProt P49327); test: inhibition of human FAS-TE enzyme activity – biochemical, endpoint fluorescence intensity, uHTS hits, dose response (AID 624327); format: functional;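 also: fluorescence from hydrolysis of an O-methyl fluorescein acyl ester substrate by the enzyme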
T7 sequence (P49327 whole entry): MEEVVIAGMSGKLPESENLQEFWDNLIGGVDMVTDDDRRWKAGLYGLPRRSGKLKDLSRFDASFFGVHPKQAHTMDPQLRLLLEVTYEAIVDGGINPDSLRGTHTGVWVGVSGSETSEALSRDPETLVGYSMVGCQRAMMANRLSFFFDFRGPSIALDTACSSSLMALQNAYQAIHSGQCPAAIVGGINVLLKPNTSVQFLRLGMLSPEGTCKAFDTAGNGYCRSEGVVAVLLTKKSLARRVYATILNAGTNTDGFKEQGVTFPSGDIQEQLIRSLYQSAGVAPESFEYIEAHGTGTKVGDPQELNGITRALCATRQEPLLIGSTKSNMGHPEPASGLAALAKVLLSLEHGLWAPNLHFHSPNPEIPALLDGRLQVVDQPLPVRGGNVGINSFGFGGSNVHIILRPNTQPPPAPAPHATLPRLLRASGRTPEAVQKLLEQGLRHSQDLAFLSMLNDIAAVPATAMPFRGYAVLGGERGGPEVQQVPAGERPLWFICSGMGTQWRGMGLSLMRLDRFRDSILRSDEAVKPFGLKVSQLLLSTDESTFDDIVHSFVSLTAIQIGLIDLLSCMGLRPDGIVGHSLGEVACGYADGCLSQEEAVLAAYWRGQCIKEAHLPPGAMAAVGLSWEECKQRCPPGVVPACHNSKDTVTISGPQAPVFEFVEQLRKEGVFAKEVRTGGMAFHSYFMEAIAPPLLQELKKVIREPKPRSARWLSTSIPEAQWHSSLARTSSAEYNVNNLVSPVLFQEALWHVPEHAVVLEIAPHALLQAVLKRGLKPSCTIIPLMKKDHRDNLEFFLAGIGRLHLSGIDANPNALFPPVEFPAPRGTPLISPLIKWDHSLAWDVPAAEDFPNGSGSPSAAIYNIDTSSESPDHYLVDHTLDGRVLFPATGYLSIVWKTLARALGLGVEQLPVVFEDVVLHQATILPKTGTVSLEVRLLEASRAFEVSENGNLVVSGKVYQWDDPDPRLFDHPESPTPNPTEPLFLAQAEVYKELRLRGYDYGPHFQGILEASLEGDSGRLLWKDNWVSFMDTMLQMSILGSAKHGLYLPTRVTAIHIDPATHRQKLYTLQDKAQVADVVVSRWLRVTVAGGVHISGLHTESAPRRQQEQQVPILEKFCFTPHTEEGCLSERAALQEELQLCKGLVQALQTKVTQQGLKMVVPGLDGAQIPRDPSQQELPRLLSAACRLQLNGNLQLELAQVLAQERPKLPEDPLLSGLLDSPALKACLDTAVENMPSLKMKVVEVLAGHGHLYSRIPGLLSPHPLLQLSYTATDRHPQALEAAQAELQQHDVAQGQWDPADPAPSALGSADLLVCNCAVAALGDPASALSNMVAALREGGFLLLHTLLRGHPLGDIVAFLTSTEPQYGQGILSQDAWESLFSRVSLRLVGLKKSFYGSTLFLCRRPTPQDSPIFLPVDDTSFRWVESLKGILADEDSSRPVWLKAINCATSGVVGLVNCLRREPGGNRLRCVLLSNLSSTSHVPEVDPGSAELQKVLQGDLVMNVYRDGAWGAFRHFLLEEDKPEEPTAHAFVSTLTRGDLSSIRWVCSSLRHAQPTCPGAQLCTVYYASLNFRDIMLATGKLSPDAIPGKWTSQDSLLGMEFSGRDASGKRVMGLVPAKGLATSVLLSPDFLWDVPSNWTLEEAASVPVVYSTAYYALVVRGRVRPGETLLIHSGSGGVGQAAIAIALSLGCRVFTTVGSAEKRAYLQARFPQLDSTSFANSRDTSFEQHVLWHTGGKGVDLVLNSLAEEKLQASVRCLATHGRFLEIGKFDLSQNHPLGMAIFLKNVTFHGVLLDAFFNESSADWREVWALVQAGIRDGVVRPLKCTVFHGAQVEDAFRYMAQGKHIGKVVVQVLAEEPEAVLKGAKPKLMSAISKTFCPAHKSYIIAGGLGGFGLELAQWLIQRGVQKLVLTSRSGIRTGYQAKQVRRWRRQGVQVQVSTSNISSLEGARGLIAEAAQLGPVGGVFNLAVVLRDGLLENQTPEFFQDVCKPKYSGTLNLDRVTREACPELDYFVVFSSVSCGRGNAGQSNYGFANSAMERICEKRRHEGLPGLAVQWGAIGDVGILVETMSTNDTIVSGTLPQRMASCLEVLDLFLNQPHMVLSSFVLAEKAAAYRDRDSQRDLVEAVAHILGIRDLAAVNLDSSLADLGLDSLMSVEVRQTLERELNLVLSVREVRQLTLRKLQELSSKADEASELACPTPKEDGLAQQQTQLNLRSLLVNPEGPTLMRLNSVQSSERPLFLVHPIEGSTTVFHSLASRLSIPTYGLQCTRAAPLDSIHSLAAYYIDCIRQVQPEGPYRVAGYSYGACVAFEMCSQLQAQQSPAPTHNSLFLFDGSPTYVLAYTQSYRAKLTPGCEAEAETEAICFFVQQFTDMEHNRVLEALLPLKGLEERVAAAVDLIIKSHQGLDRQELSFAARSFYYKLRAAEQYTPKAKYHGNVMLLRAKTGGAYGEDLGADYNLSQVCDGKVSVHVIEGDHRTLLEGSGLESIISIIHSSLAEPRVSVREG

[13] = target: T7, Fatty acid synthase; test: inhibition of human FAS-TE enzyme activity – biochemical, kinetic fluorescence intensity, dose response (AID 624326); format: functional;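 also: rate of fluorescence rise from hydrolysis of a fluorogenic O-methyl fluorescein ester substrate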

SMILES	IC50 [3]	IC50 [4]	IC50 [5]	IC50 [6]	IC50 [10]	IC50 [11]	further results
COc1ccc(OC)c2c(C)cc(N3CCN(C(=O)c4ccc(Cl)cc4)CC3)nc12							AC50 [1]: 8.32 µM (active); AC50 [2]: 9.36 µM (active)
COC(=O)c1ccc(NC(=O)C(=O)c2c[nH]c3ccccc23)cc1	> 99 µM (inactive)	> 99 µM (inactive)	> 99 µM (inactive)	> 99 µM (inactive)			
O=C1NC(=O)/C(=C\c2ccccc2OCc2ccccc2)S1					10.7 µM (active)	8.29 µM (active)	EC50 [7]: 16.4 µM (active); EC50 [8]: 37.6 µM (active); EC50 [9]: 88.8 µM (active)
O=C(O)COc1ccccc1C=NNc1ccc([N+](=O)[O-])cc1S(=O)(=O)Nc1ccc(Cl)cc1					10.6 µM (active)	12.2 µM (active)	IC50 [12]: 10.8 µM (active); IC50 [13]: 12.5 µM (active)
O=C(Nc1ccccc1Cl)c1ccc(OCc2ccccc2)cc1	> 99 µM (inactive)	> 99 µM (inactive)	> 99 µM (inactive)	> 99 µM (inactive)			
COc1cc(C(=O)Nc2ccccc2Cl)ccc1OCc1ccc(Cl)cc1	> 99 µM (inactive)	> 99 µM (inactive)	> 99 µM (inactive)	> 99 µM (inactive)			
O=C(O/N=C1/CCSc2ccccc21)c1ccccc1					16 µM (active)	13.2 µM (active)	
